Results on six molecules are retold here after patent US6811990B1, “Methods and compositions for coupled luminescent assays” (priority 2001, dated 2004).

Read-outs that look alike come from different tables or passages of the source.

One data set relates to G3PDH or PGK. The data set is described as follows: Stop reagent test in DeathTRAK reaction with G3PDH test enzyme. The data set is classed as biochemical. To be noted: ~3 mM final BPV, added after 21 minutes, with and without added PGK. An excerpt: In another aspect, the present invention provides methods and compositions for a single-timepoint coupled luminescent assay, making use of a stop reagent to end the production of the high-energy molecule that is the luciferase substrate, while allowing the luciferase reaction to continue. In a preferred embodiment of this concept, an inhibitor of G3PDH or PGK is used to stop production of ATP in the DeathTRAK reactions of Examples 1 and 2. […] It is also possible to perform a single read without a stop reagent, but the stop reagent allows the read to be done at a time convenient to the user, multiple times, or for an extended period. […] Any molecule which inhibits G3PDH and/or PGK, but inhibits luciferase to a lesser or insignificant degree, might be used.
To a 0.5-mL aliquot of this cocktail, 0.0016 mL of 1:1,000,000-diluted PGK were added (termed “+PGK” cocktail). Two 0.045-mL aliquots of the standard unoptimized cocktail and two 0.045-mL aliquots of the “+PGK” cocktail were measured into a luminescent microtiter plate. 0.005 mL of 1:100,000-diluted G3PDH was transferred to each of these four aliquots of cocktail. […] Use of this or an alternative stop reagent allows the user to delay reading the plate, while maintaining the relative signal strengths of the samples.

Data set [1] concerns E. coli strain K1. The data set is described as follows: DeathTRAK cytotoxicity mode, antibiotics on E. coli. As for the experimental part: (§1) FIGS. 13-15 illustrate the use of cytotoxicity/proliferation mode to characterize the effects of various antibiotics on E. coli cells. First, the cytotoxicity signal was obtained by adding the DeathTRAK reagent cocktail directly to the toxicity reaction, three hours after the antibiotics were added to the E. coli culture. The luminance was measured and recorded (FIG. 13), whereupon the lytic agent was added, and the luminance was immediately measured again (FIG. 14).
(§2) E. coli (strain K1, obtained from Dr. Craig Rubens of Children's Hospital and Regional Medical Center, Seattle, Wash.) were inoculated from a frozen permanent into 1-2 mL of LB, grown overnight, diluted 1:20 into LB, grown a further 106 minutes at 37C with 240 rpm shaking, harvested by centrifugation, washed twice with LB, and resuspended to a final A600 of 1.549. It was determined by colony-forming unit assays that an A600 of 2.18 corresponds to ˜3.02×10^8 cells/mL. This was diluted to 200,000/mL and a 10% volume of 10 mM dithiothreitol and 1% protease inhibitor cocktail in LB was added (yielding 0.1% protease inhibitor cocktail after mixing). 55 μL of this mixture was distributed to each test well of a 96-well white luminance microtiter plate, whereupon 5 μL of antibiotic or PBS (vehicle) was added. The plate was shaken at 240 rpm for 3 hours at 37C. 40 μL of DeathTRAK cocktail was then added and luminance was read for ˜8 minutes. The lytic agent was then made up as equal parts 6000 units/mL polymyxin B and 50% lysozyme, both in PBS. 10 μL of this lytic agent was added to each well and the second luminance readout (proliferation/viability) was taken.

The test system of data set [2] is E. coli strain K1. The data set is described as follows: DeathTRAK proliferation/viability mode after polymyxin B/lysozyme lysis, antibiotics on E. coli. It is filed as cell-based. To be noted: for Proliferation/Viability: E. coli, Table V, DeathTRAK readout after lytic agent. As for the experimental part:
as §1, §2

For a further data set, the system named is E. coli. The data set is described as follows: Colony-forming unit (CFU) tests of antibiotic-treated cultures. It is filed as cell-based. To be noted: E. coli cultures plated at various dilutions.
Data set [3] relates to Group-A Streptococci.
Method: (§3) The A600 was 0.356. […] After washing the cells were grown for 90 minutes at 37C with 240 rpm shaking. Antibiotics or PBS (vehicle) were then added in 5 μL, and the protective cocktail containing dithiothreitol and protease inhibitor cocktail was added in a further 5 μL. The cells were incubated at 37C with 240 rpm shaking for a further 90 minutes, whereupon the DeathTRAK cocktail was added and the cytotoxicity read as described above for Gram negatives. The total-lysis agent, 10 μL of 2% Nonidet P-40, was then added, and the proliferation/viability signal was read as above for Gram negatives.
In data set [4] the test system is Group-A Streptococci. The data set can be described thus: DeathTRAK proliferation/viability mode after Nonidet P-40 lysis, Group-A Streptococci. It is filed as cell-based, Group-A Streptococcus. The following applies: 90 minutes with antibiotic, after Nonidet P-40 lysis (FIG. 17). An excerpt: These are Gram positive organisms. […] However, both cytotoxicity and proliferation effects are seen. […] Finally, the result with gentamicin is distinctive.

For data set [5], the system named is Group-A Streptococci. The data set is described as follows: DeathTRAK cytotoxicity mode, antibiotics on Group-A Streptococci. To be noted: 90 minutes with antibiotic (FIG. 16).
Method: as §3
For the next data set, the system named is DeathTRAK signal. The data set is described as follows: Effect of detergent on the DeathTRAK signal. To be noted: at 0.1% Nonidet P-40; changes very little above approximately 0.1%. It is filed as biochemical. An excerpt: FIG. 12 illustrates the use of cytotoxicity/proliferation mode to measure both the cytotoxic effects and the total cell number after addition of the detergent Nonidet P40 to the mammalian cell line 841 CON. Similar results have been obtained with the PC-3 prostate cancer and T24 bladder-cancer cell lines. In these experiments, the detergent is used as both the toxin and the final lytic agent. Thus the cytotoxicity signal in FIG. 12 represents the signal obtained after the indicated quantities of detergent were added to the cells, and the proliferation signal in the same figure represents the signals obtained after an additional 0.2% Nonidet P-40 was added to all the cells. […] Thus Nonidet P-40 can be used as the universal lytic agent for measuring proliferation of mammalian cells, provided that if it is desired to compare the cytotoxicity and proliferation signals, the final signal must be corrected for the inhibitory effect of the detergent. If the final detergent concentration used is above approximately 0.1%, then this correction will consist essentially of multiplication by a constant. However, if proliferation signals alone are to be compared, this correction is not necessary. Note that in FIG. 12, the proliferation signal is fairly constant. This is because each experiment began with the same number of cells seeded into each well. […]

The mark [6] stands for this setting: E. coli K1, three hours with antibiotic, after lytic agent (FIG. 14).

Consider `O=C(O)C(=O)CBr` [BPV, bromopyruvic acid], for which, in the data set with G3PDH or PGK, the “increase in luminance (ATP production) in DeathTRAK reaction” value was “stopped the increase in luminance”.
With `CC1(C)S[C@@H]2[C@H](NC(=O)C(C(=O)O)c3ccccc3)C(=O)N2[C@H]1C(=O)O` (some centres unmarked) [Carbenicillin], in the data set with E. coli strain K1 [1], the Cytotoxicity result is listed as “+” and the cytotoxicity signal entry is listed as “strong cytotoxicity”. Moreover, the effect on proliferation/viability entry in the data set with E. coli strain K1 [2] (setting [6]) is on record as “strong inhibitory effect on proliferation/viability”. The Proliferation/Viability entry in the data set on E. coli strain K1 [2] is listed as “+”. Also, in the data set with E. coli, the “toxicity by CFU assay” value is reported as “toxic”. In the data set with Group-A Streptococci [3], the cytotoxicity signal result was “identified as a lytic agent”.
As for `Nc1ccc(S(N)(=O)=O)cc1` [Sulfanilamide], in the data set on E. coli strain K1 [1], the Cytotoxicity result was “−” and the cytotoxicity signal entry is listed as “no toxicity”. Moreover, the effect on proliferation/viability result in the data set with E. coli strain K1 [2] (setting [6]) is given as “no toxicity or effect on proliferation/viability”.
With `CN[C@H](CC(C)C)C(=O)N[C@H]1C(=O)N[C@@H](CC(N)=O)C(=O)N[C@H]2C(=O)N[C@H]3C(=O)N[C@H](C(=O)N[C@H](C(=O)O)c4cc(O)cc(O)c4-c4cc3ccc4O)[C@H](O)c3ccc(c(Cl)c3)Oc3cc2cc(c3O[C@@H]2O[C@H](CO)[C@@H](O)[C@H](O)[C@H]2O[C@H]2C[C@](C)(N)[C@H](O)[C@H](C)O2)Oc2ccc(cc2Cl)[C@H]1O` [Vancomycin], the cytotoxicity signal entry was “slight but statistically significant toxicity” with E. coli strain K1 [1] (E. coli K1, three hours after antibiotics were added (FIG. 13)) and “little or no direct cytotoxicity” in the data set with Group-A Streptococci [5]. Also, the Cytotoxicity result in the data set on E. coli strain K1 [1] (E. coli, Table V, DeathTRAK cytotoxicity readout) is reported as “+”. In addition, in the data set on E. coli strain K1 [2] (setting [6]), the effect on proliferation/viability result is given as “slight inhibition of proliferation/viability”. Further, the Proliferation/Viability result in the data set on E. coli strain K1 [2] is on record as “+”. The “toxicity by CFU assay” value in the data set with E. coli is “toxic”. Moreover, in the data set with Group-A Streptococci [4], the proliferation/viability signal result is “very strong reduction in the proliferation/viability signal”.
With Gentamicin, in the data set with E. coli strain K1 [1] (E. coli K1, 90 minutes (FIG. 15)), the Cytotoxicity entry is listed as “no cytotoxicity”. Also, in the data set on E. coli strain K1 [2] (E. coli K1, similar experiment, 90 minutes (FIG. 15)), the effect on proliferation/viability entry is “strong effect on proliferation/viability”. Moreover, the Proliferation/Viability result with E. coli strain K1 [2] was “+”. For the same molecule, the proliferation/viability signal entry in the data set with Group-A Streptococci [4] was “strongly toxic”. Also, the cytotoxicity signal result with Group-A Streptococci [5] is reported as “negative toxicity signal”.
Regarding Nonidet P-40, in the data set with DeathTRAK signal, the “inhibition of DeathTRAK signal” value was “approximately 45%”.
